Reference: patent publication US12655116B2, “Substituted isophthalic acid diamides” (Bayer Aktiengesellschaft, priority 2020, dated 2026)

How the values were obtained:
[1] = system: ABUTH; assay: Pre-emergence herbicidal action against ABUTH; type: in vivo, Abutilon theophrasti
Method in brief: (§1)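 Herbicidal effect was assessed 3 weeks after treatment by visual comparison with untreated controls, 100% denoting dead plants. Aqueous WP or EC preparations had been applied at 600 to 800 l/ha with 0.2% wetting agent to the soil covering freshly sown seeds.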

[2] = system: AMARE; assay: Pre-emergence herbicidal action against AMARE; type: in vivo, Amaranthus retroflexus
Method in brief: as §1

[3] = system: ECHCG; assay: Pre-emergence herbicidal action against ECHCG; type: in vivo, Echinochloa crus-galli
Method in brief: as §1

[4] = system: MATIN; assay: Pre-emergence herbicidal action against MATIN; type: in vivo, Matricaria inodora
Method in brief: as §1

[5] = system: PHBPU; assay: Pre-emergence herbicidal action against PHBPU; type: in vivo, Pharbitis purpurea; conditions: dosage 80 g/ha
Method in brief: as §1

[6] = system: POLCO; assay: Pre-emergence herbicidal action against POLCO; type: in vivo, Polygonum convolvulus; conditions: dosage 80 g/ha
Method in brief: as §1

[7] = system: SETVI; assay: Pre-emergence herbicidal action against SETVI; type: in vivo, Setaria viridis
Method in brief: as §1

[8] = system: VERPE; assay: Pre-emergence herbicidal action against VERPE; type: in vivo, Veronica persica
Method in brief: as §1

[9] = system: VIOTR; assay: Pre-emergence herbicidal action against VIOTR; type: in vivo, Viola tricolor
Method in brief: as §1

[10] = system: DIGSA; assay: Pre-emergence herbicidal action against DIGSA; type: in vivo, Digitaria sanguinalis
Method in brief: as §1

[11] = system: ABUTH; assay: Post-emergence herbicidal action against ABUTH; type: in vivo, Abutilon theophrasti; conditions: visual assessment about 3 weeks after treatment vs untreated controls
Method in brief: (§2)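 Herbicidal effect was scored visually in percent after about 3 weeks in the greenhouse. Plants had been raised in sandy loam and treated post-emergence at the one-leaf stage with formulated compound at 600 to 800 l/ha water plus 0.2% wetting agent.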

[12] = system: AMARE; assay: Post-emergence herbicidal action against AMARE; type: in vivo, Amaranthus retroflexus; conditions: 20 g/ha, visual assessment about 3 weeks after treatment, 100% = plants have died, 0% = like control plants
Method in brief: as §2

[13] = system: ECHCG; assay: Post-emergence herbicidal action against ECHCG; type: in vivo, Echinochloa crus-galli
Method in brief: as §2

[14] = system: MATIN; assay: Post-emergence herbicidal action against MATIN; type: in vivo, Matricaria inodora
Method in brief: as §2

[15] = system: PHBPU; assay: Post-emergence herbicidal action against PHBPU; type: in vivo, Pharbitis purpurea; conditions: dosage 20 g/ha
Method in brief: as §2

[16] = system: SETVI; assay: Post-emergence herbicidal action against SETVI; type: in vivo, Setaria viridis
Method in brief: as §2

[17] = system: VERPE; assay: Post-emergence herbicidal action against VERPE; type: in vivo, Veronica persica
Method in brief: as §2

[18] = system: VIOTR; assay: Post-emergence herbicidal action against VIOTR; type: in vivo, Viola tricolor
Method in brief: as §2

[19] = system: DIGSA; assay: Post-emergence herbicidal action against DIGSA; type: in vivo, Digitaria sanguinalis
Method in brief: as §2

[20] = system: ALOMY; assay: Pre-emergence herbicidal action against ALOMY; type: in vivo, Alopecurus myosuroides; conditions: 80 g/ha, pre-emergence, scored visually after 3 weeks vs untreated controls (100% = plants have died, 0% = like control plants)
Method in brief: as §1

[21] = system: AVEFA; assay: Pre-emergence herbicidal action against AVEFA; type: in vivo, Avena fatua; conditions: 80 g/ha, pre-emergence
Method in brief: as §1

[22] = 80 g/ha, scored visually after 3 weeks vs untreated controls (100% = plants have died, 0% = like control plants)
[23] = dosage 20 g/ha, scored visually after 3 weeks vs untreated controls, 100% = plants have died, 0% = like control plants
[24] = 20 g/ha, scored visually after 3 weeks vs untreated controls, 100% = plants have died, 0% = like control plants
[25] = Tripleurospermum inodorum, 504 h, dosage 20 g/ha
[26] = Setaria viridis, 504 h, dosage 20 g/ha

With `CCc1c(C(=O)Nc2nnnn2CC)ccc(C(F)F)c1C(=O)NC` [Example 2-277] the “Pre-emergence action against ABUTH (herbicidal activity)” value [1, 22] was 100%, the “Pre-emergence action against ABUTH (herbicidal activity in percent)” value [1, 23] was 90% and the “Pre-emergence action against AMARE in %” value [2, 24] was 100%. The “Pre-emergence action against AMARE in %” value [2, 22] was 100%, the “Pre-emergence action against ECHCG in %” value ([3]; 80 g/ha) was 90% and the “Pre-emergence action against MATIN in %” value ([4]; dosage 20 g/ha) was 90%. The “Pre-emergence action against MATIN in %” value ([4]; dosage 80 g/ha) was 100%, the “Pre-emergence action against PHBPU in %” value [5] was 80% and the “Pre-emergence action against POLCO in %” value [6] was 90%. For the same compound, the “Pre-emergence action against SETVI in %” value ([7]; dosage 80 g/ha) was 80%, the “Pre-emergence action against VERPE in %” value ([8]; dosage 80 g/ha) was 100% and the “Pre-emergence action against VIOTR in %” value ([9]; dosage 20 g/ha) was 100%. The “Pre-emergence action against VIOTR in %” value ([9]; dosage 80 g/ha) was 100%, the “Pre-emergence action against DIGSA in %” value ([10]; dosage 20 g/ha) was 90% and the “Pre-emergence action against DIGSA in %” value ([10]; dosage 80 g/ha) was 100%. For the same compound, the “Post-emergence action against ABUTH in %” value ([11]; dosage 5 g/ha) was 80%, the “Post-emergence action against ABUTH in %” value ([11]; dosage 20 g/ha) was 90% and the “Post-emergence action at 20 g/ha against AMARE in %” value [12] was 90%. The “Post-emergence action against ECHCG in %” value ([13]; dosage 20 g/ha) was 100%, the “Post-emergence action against MATIN in %” value ([14]; dosage 5 g/ha) was 90% and the “Post-emergence action against MATIN in %” value ([14]; dosage 20 g/ha) was 90%. The “Post-emergence action against PHBPU in %” value [15] was 90%, the “Post-emergence action against SETVI in %” value ([16]; dosage 5 g/ha) was 90% and the “Post-emergence action against SETVI in %” value ([16]; dosage 20 g/ha) was 90%. For the same compound, the “Post-emergence action against VERPE in %” value ([17]; 5 g/ha) was 80%, the “Post-emergence action against VERPE in %” value ([17]; 20 g/ha) was 90% and the “Post-emergence action against VIOTR in %” value ([18]; 5 g/ha) was 90%. The “Post-emergence action against VIOTR in %” value ([18]; 20 g/ha) was 90%, the “Post-emergence action against DIGSA in %” value ([19]; 5 g/ha) was 90% and the “Post-emergence action against DIGSA” value ([19]; 20 g/ha) was 90%.

With `CCNC(=O)c1c(C(F)F)ccc(C(=O)Nc2nnnn2C)c1C1CC1` [Example 1-305] the pest or weed control at 80 g/ha ([1]; Abutilon theophrasti, 504 h, 80 g/ha, scored visually after 3 weeks vs untreated controls (100% = plants have died, 0% = like control plants)) was 100%, the pest or weed control at 20 g/ha ([1]; Abutilon theophrasti, 504 h, dosage 20 g/ha, scored visually after 3 weeks vs untreated controls, 100% = plants have died, 0% = like control plants, read-out: Pre-emergence action against ABUTH (herbicidal activity in percent)) was 100% and the pest or weed control at 20 g/ha ([2]; Amaranthus retroflexus, 504 h, 20 g/ha, scored visually after 3 weeks vs untreated controls, 100% = plants have died, 0% = like control plants) was 100%. The pest or weed control at 80 g/ha ([2]; Amaranthus retroflexus, 504 h, 80 g/ha, scored visually after 3 weeks vs untreated controls, 100% = plants have died, 0% = like control plants) was 100%, the pest or weed control at 20 g/ha ([3]; Echinochloa crus-galli, 504 h, 20 g/ha) was 80% and the pest or weed control at 80 g/ha ([3]; Echinochloa crus-galli, 504 h, 80 g/ha) was 100%. For the same compound, the pest or weed control at 20 g/ha [4, 25] was 100%, the pest or weed control at 80 g/ha ([4]; Tripleurospermum inodorum, 504 h, dosage 80 g/ha) was 100% and the pest or weed control at 80 g/ha ([5]; Ipomoea purpurea, 504 h) was 90%. For the same compound, the pest or weed control at 80 g/ha ([6]; Fallopia convolvulus, 504 h) was 80%, the pest or weed control at 20 g/ha [7, 26] was 80% and the pest or weed control at 80 g/ha ([7]; Setaria viridis, 504 h, dosage 80 g/ha) was 100%. It also gave a pest or weed control at 80 g/ha ([8]; Veronica persica, 504 h, dosage 80 g/ha) of 100%, a pest or weed control at 20 g/ha ([9]; Viola tricolor, 504 h, dosage 20 g/ha) of 100% and a pest or weed control at 80 g/ha ([9]; Viola tricolor, 504 h, dosage 80 g/ha) of 100%. The pest or weed control at 20 g/ha ([10]; Digitaria sanguinalis, 504 h, dosage 20 g/ha) was 100%, the pest or weed control at 80 g/ha ([10]; Digitaria sanguinalis, 504 h, dosage 80 g/ha) was 100% and the pest or weed control at 5 g/ha ([11]; Abutilon theophrasti, 504 h, dosage 5 g/ha) was 90%. It also gave a pest or weed control at 20 g/ha ([11]; Abutilon theophrasti, 504 h, dosage 20 g/ha) of 90%, a pest or weed control at 20 g/ha ([12]; Amaranthus retroflexus, 504 h) of 90% and a pest or weed control at 20 g/ha ([13]; Echinochloa crus-galli, 504 h, dosage 20 g/ha) of 90%. It also gave a pest or weed control at 5 g/ha ([14]; Tripleurospermum inodorum, 504 h, dosage 5 g/ha) of 90%, a pest or weed control at 20 g/ha [14, 25] of 90% and a pest or weed control at 20 g/ha ([15]; Ipomoea purpurea, 504 h) of 90%. It also gave a pest or weed control at 20 g/ha [16, 26] of 90%, a pest or weed control at 20 g/ha ([17]; Veronica persica, 504 h, 20 g/ha) of 80% and a pest or weed control at 5 g/ha ([18]; Viola tricolor, 504 h, 5 g/ha) of 90%. The pest or weed control at 20 g/ha ([18]; Viola tricolor, 504 h, 20 g/ha) was 90% and the pest or weed control at 20 g/ha ([19]; Digitaria sanguinalis, 504 h, 20 g/ha) was 80%.

`CCNC(=O)c1c(C(F)F)ccc(C(=O)Nc2nnnn2CC)c1OC` [Example 2-73] was tested, and the “Pre-emergence action against ABUTH (herbicidal activity)” value [1, 22] was 100%, the “Pre-emergence action against ABUTH (herbicidal activity in percent)” value [1, 23] was 100% and the “Pre-emergence action against ALOMY (herbicidal activity)” value [20] was 100%. The “Pre-emergence action against AMARE in %” value [2, 24] was 100%, the “Pre-emergence action against AMARE in %” value [2, 22] was 100% and the “Pre-emergence action against AVEFA in %” value [21] was 80%. The “Pre-emergence action against ECHCG in %” value ([3]; 80 g/ha) was 100%, the “Pre-emergence action against MATIN in %” value ([4]; dosage 20 g/ha) was 100% and the “Pre-emergence action against MATIN in %” value ([4]; dosage 80 g/ha) was 100%. For the same compound, the “Pre-emergence action against PHBPU in %” value [5] was 80%, the “Pre-emergence action against POLCO in %” value [6] was 80% and the “Pre-emergence action against SETVI in %” value ([7]; dosage 80 g/ha) was 100%. The “Pre-emergence action against VERPE in %” value ([8]; dosage 20 g/ha) was 90%, the “Pre-emergence action against VERPE in %” value ([8]; dosage 80 g/ha) was 90% and the “Pre-emergence action against VIOTR in %” value ([9]; dosage 20 g/ha) was 90%. For the same compound, the “Pre-emergence action against VIOTR in %” value ([9]; dosage 80 g/ha) was 100%, the “Pre-emergence action against DIGSA in %” value ([10]; dosage 20 g/ha) was 90% and the “Pre-emergence action against DIGSA in %” value ([10]; dosage 80 g/ha) was 100%. The “Post-emergence action against ABUTH in %” value ([11]; dosage 5 g/ha) was 80%, the “Post-emergence action against ABUTH in %” value ([11]; dosage 20 g/ha) was 80% and the “Post-emergence action against ECHCG in %” value ([13]; dosage 5 g/ha) was 80%. The “Post-emergence action against ECHCG in %” value ([13]; dosage 20 g/ha) was 80%, the “Post-emergence action against MATIN in %” value ([14]; dosage 5 g/ha) was 80% and the “Post-emergence action against MATIN in %” value ([14]; dosage 20 g/ha) was 80%. For the same compound, the “Post-emergence action against PHBPU in %” value [15] was 80%, the “Post-emergence action against SETVI in %” value ([16]; dosage 20 g/ha) was 100% and the “Post-emergence action against VERPE in %” value ([17]; 5 g/ha) was 80%. For the same compound, the “Post-emergence action against VERPE in %” value ([17]; 20 g/ha) was 90% and the “Post-emergence action against VIOTR in %” value ([18]; 20 g/ha) was 100%.
